According to patent publication US20260317340A1, “COMPOUNDS, COMPOSITIONS, AND METHODS OF TREATING DISORDERS” (Chengdu Anticancer Bioscience, Ltd., priority 2023, published 2026):
Read-outs that look alike come from different tables or passages of the source.

Key:
[1] = tested on: RPE-Neo or RPE-MYC or RPE-MYC expressing an EGFP-Histone 2B fusion protein; assay: Phenotypic screening assay: arrest in mitosis, change in DNA content (polyploidy), cell death; assay type: cell-based; settings: 20 nM to 20 μM, 24, 48 or 72 hours
Procedure, shortened: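 Compound exposure from 20 nM to 20 μM in RPE lines (Neo, MYC, or MYC with EGFP-histone H2B), seeded 18-24 h earlier; imaging at 24, 48 or 72 h read mitotic arrest or altered DNA content, with MTT for proliferation. Results reported as A–D range categories.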

RPE-Neo or RPE-MYC cells = assay: MTT assay of cellular proliferation (proliferative arrest); assay type: cell-based; settings: read-out: Min. Effective conc. for Proliferative arrest (>50%)
[2] = read-out: Min. Effective conc. for Along with Cell Death
[3] = ≥5%, read-out: Min. Effective conc. for Mitotic Arrest (≥5%)
[4] = ≥5%, read-out: Min. Effective conc. for Polyploidy (≥5%)

Measured: minimal effective concentration

CCOCCn1cc(-c2ccc3c(c2)N(Cc2ccc(OC)cc2)C(=O)CC(c2ncc(C)o2)=C3)cn1 [Compound 80, 8-(1-(2-ethoxyethyl)-1H-pyrazol-4-yl)-1-(4-methoxybenzyl)-4-(5-methyloxazol-2-yl)-1,3-dihydro-2H-benzo[b]azepin-2-one]
0.001 to 1 µM: [1]; [2] | [1]; [3] | [1]; [4] | RPE-Neo or RPE-MYC cells

COc1ccc(CN2C(=O)CC(c3ncc(C)o3)=Cc3ccc(-c4cnn(C(C)=O)c4)cc32)cc1 [Compound 81, 8-(1-Acetyl-1H-pyrazol-4-yl)-1-(4-methoxybenzyl)-4-(5-methyloxazol-2-yl)-1,3-dihydro-2H-benzo[b]azepin-2-one]
0.001 to 1 µM: [1]; [2] | [1]; [3] | [1]; [4] | RPE-Neo or RPE-MYC cells

COc1ccc(CN2C(=O)CC(c3ncc(C)o3)=Cc3ccc(-c4cnn(C(C)C(C)O)c4)cc32)cc1 (centres unmarked) [Compound 83, 8-(1-(3-Hydroxybutan-2-yl)-1H-pyrazol-4-yl)-1-(4-methoxybenzyl)-4-(5-methyloxazol-2-yl)-1,3-dihydro-2H-benzo[b]azepin-2-one]
0.001 to 1 µM: [1]; [2] | [1]; [3] | [1]; [4] | RPE-Neo or RPE-MYC cells

CCS(=O)(=O)N1CC(CC#N)(n2cc(-c3ccc4c(c3)N(Cc3ccc(OC)cc3)C(=O)CC(c3ncc(C)o3)=C4)cn2)C1 [Compound 84, 2-(1-(Ethylsulfonyl)-3-(4-(1-(4-methoxybenzyl)-4-(5-methyloxazol-2-yl)-2-oxo-2,3-dihydro-1H-benzo[b]azepin-8-yl)-1H-pyrazol-1-yl)azetidin-3-yl)acetonitrile]
0.001 to 1 µM: [1]; [2] | [1]; [3] | [1]; [4] | RPE-Neo or RPE-MYC cells

COc1ccc(CN2C(=O)CC(c3ncc(C)o3)=Cc3ccc(-c4cnn(C5(CC#N)CNC5)c4)cc32)cc1 [Compound 85, 2-(3-(4-(1-(4-Methoxybenzyl)-4-(5-methyloxazol-2-yl)-2-oxo-2,3-dihydro-1H-benzo[b]azepin-8-yl)-1H-pyrazol-1-yl)azetidin-3-yl)acetonitrile]
0.001 to 1 µM: [1]; [2] | [1]; [3] | [1]; [4] | RPE-Neo or RPE-MYC cells

COc1ccc(CN2C(=O)CC(c3ncc(C)o3)=Cc3ccc(-c4cnn(C(C)(C)C#N)c4)cc32)cc1 [Compound 86, 2-(4-(1-(4-Methoxybenzyl)-4-(5-methyloxazol-2-yl)-2-oxo-2,3-dihydro-1H-benzo[b]azepin-8-yl)-1H-pyrazol-1-yl)-2-methylpropanenitrile]
0.001 to 1 µM: [1]; [2] | [1]; [3] | [1]; [4] | RPE-Neo or RPE-MYC cells

COc1ccc(CN2C(=O)CC(c3ncc(C)o3)=Cc3ccc(-c4cnn(C5(CC#N)CN(S(C)(=O)=O)C5)c4)cc32)cc1 [Compound 87, 2-(3-(4-(1-(4-Methoxybenzyl)-4-(5-methyloxazol-2-yl)-2-oxo-2,3-dihydro-1H-benzo[b]azepin-8-yl)-1H-pyrazol-1-yl)-1-(methylsulfonyl)azetidin-3-yl)acetonitrile]
0.001 to 1 µM: [1]; [2] | [1]; [3] | [1]; [4] | RPE-Neo or RPE-MYC cells

COc1ccc(CN2C(=O)CC(c3ncc(C)o3)=Cc3ccc(-c4cnn(C5(CC#N)COC5)c4)cc32)cc1 [Compound 88, 2-(3-(4-(1-(4-Methoxybenzyl)-4-(5-methyloxazol-2-yl)-2-oxo-2,3-dihydro-1H-benzo[b]azepin-8-yl)-1H-pyrazol-1-yl)oxetan-3-yl)acetonitrile]
0.001 to 1 µM: [1]; [2] | [1]; [3] | [1]; [4] | RPE-Neo or RPE-MYC cells

COc1ccc(CN2C(=O)CC(c3ncc(C)o3)=Cc3ccc(-c4cnn(C5(CC#N)CN(S(=O)(=O)C6CC6)C5)c4)cc32)cc1 [Compound 89, 2-(1-(Cyclopropylsulfonyl)-3-(4-(1-(4-methoxybenzyl)-4-(5-methyloxazol-2-yl)-2-oxo-2,3-dihydro-1H-benzo[b]azepin-8-yl)-1H-pyrazol-1-yl)azetidin-3-yl)acetonitrile]
0.001 to 1 µM: [1]; [2] | [1]; [3] | [1]; [4] | RPE-Neo or RPE-MYC cells

COc1ccc(CN2C(=O)CC(c3ncc(C)o3)=Cc3ccc(-c4cnn(C5(CC#N)CN(C(=O)C6CC6)C5)c4)cc32)cc1 [Compound 90, 2-(1-(Cyclopropanecarbonyl)-3-(4-(1-(4-methoxybenzyl)-4-(5-methyloxazol-2-yl)-2-oxo-2,3-dihydro-1H-benzo[b]azepin-8-yl)-1H-pyrazol-1-yl)azetidin-3-yl)acetonitrile]
0.001 to 1 µM: [1]; [2] | [1]; [3] | [1]; [4] | RPE-Neo or RPE-MYC cells

COc1ccc(CN2C(=O)CC(c3ncc(C)o3)=Cc3ccc(-c4cnn(C5(CC#N)CN(S(=O)(=O)N(C)C)C5)c4)cc32)cc1 [Compound 91, 3-(Cyanomethyl)-3-(4-(1-(4-methoxybenzyl)-4-(5-methyloxazol-2-yl)-2-oxo-2,3-dihydro-1H-benzo[b]azepin-8-yl)-1H-pyrazol-1-yl)-N,N-dimethylazetidine-1-sulfonamide]
0.001 to 1 µM: [1]; [2] | [1]; [3] | [1]; [4] | RPE-Neo or RPE-MYC cells

COc1ccc(CN2C(=O)CC(c3ncc(C)o3)=Cc3ccc(-c4cnn(C5(C(N)=O)CC5)c4)cc32)cc1 [Compound 92, 1-(4-(1-(4-Methoxybenzyl)-4-(5-methyloxazol-2-yl)-2-oxo-2,3-dihydro-1H-benzo[b]azepin-8-yl)-1H-pyrazol-1-yl)cyclopropane-1-carboxamide]
0.001 to 1 µM: [1]; [2] | [1]; [3] | [1]; [4] | RPE-Neo or RPE-MYC cells

COc1ccc(CN2C(=O)CC(c3nnc(C)o3)=Cc3ccc(-c4cnn(CC(C)(C)O)c4)cc32)cc1 [Compound 93, 8-(1-(2-Hydroxy-2-methylpropyl)-1H-pyrazol-4-yl)-1-(4-methoxybenzyl)-4-(5-methyl-1,3,4-oxadiazol-2-yl)-1,3-dihydro-2H-benzo[b]azepin-2-one]
0.001 to 1 µM: [1]; [2] | [1]; [3] | [1]; [4] | RPE-Neo or RPE-MYC cells

COc1ccc(CN2C(=O)CC(c3nc(C4CC4)no3)=Cc3ccc(-c4cnn(CC(C)(C)O)c4)cc32)cc1 [Compound 95, 4-(3-cyclopropyl-1,2,4-oxadiazol-5-yl)-8-(1-(2-hydroxy-2-methylpropyl)-1H-pyrazol-4-yl)-1-(4-methoxybenzyl)-1,3-dihydro-2H-benzo[b]azepin-2-one]
0.001 to 1 µM: [1]; [2] | [1]; [3] | [1]; [4] | RPE-Neo or RPE-MYC cells

COc1ccc(CN2C(=O)CC(c3ccon3)=Cc3ccc(-c4cnn(CC(C)(C)O)c4)cc32)cc1 [Compound 97, 8-(1-(2-Hydroxy-2-methylpropyl)-1H-pyrazol-4-yl)-4-(isoxazol-3-yl)-1-(4-methoxybenzyl)-1,3-dihydro-2H-benzo[b]azepin-2-one]
0.001 to 1 µM: [1]; [2] | [1]; [3] | [1]; [4] | RPE-Neo or RPE-MYC cells

COc1ccc(CN2C(=O)CC(c3nnco3)=Cc3ccc(-c4cnn(CC(C)(C)O)c4)cc32)cc1 [Compound 98, 8-(1-(2-Hydroxy-2-methylpropyl)-1H-pyrazol-4-yl)-1-(4-methoxybenzyl)-4-(1,3,4-oxadiazol-2-yl)-1,3-dihydro-2H-benzo[b]azepin-2-one]
0.001 to 1 µM: [1]; [2] | [1]; [3] | [1]; [4] | RPE-Neo or RPE-MYC cells

COc1ccc(CN2C(=O)CC(c3nc(C)no3)=Cc3ccc(-c4cnn(CC(C)(C)O)c4)cc32)cc1 [Compound 99, 8-(1-(2-Hydroxy-2-methylpropyl)-1H-pyrazol-4-yl)-1-(4-methoxybenzyl)-4-(3-methyl-1,2,4-oxadiazol-5-yl)-1,3-dihydro-2H-benzo[b]azepin-2-one]
0.001 to 1 µM: [1]; [2] | [1]; [3] | [1]; [4] | RPE-Neo or RPE-MYC cells

[2H]C([2H])([2H])Oc1ccc(CN2C(=O)CC(c3ncc(C)o3)=Cc3ccc(-c4cnn(CC(C)(C)O)c4)cc32)cc1 [Compound 100, 8-(1-(2-Hydroxy-2-methylpropyl)-1H-pyrazol-4-yl)-1-(4-(methoxy-d3)benzyl)-4-(5-methyloxazol-2-yl)-1,3-dihydro-2H-benzo[b]azepin-2-one]
0.001 to 1 µM: [1]; [2] | [1]; [3] | [1]; [4] | RPE-Neo or RPE-MYC cells

Cc1cnc(C2=Cc3ccc(-c4cnn(CC(C)(C)O)c4)cc3N(Cc3ccc(C)c(F)c3)C(=O)C2)o1 [Compound 101, 1-(3-fluoro-4-methylbenzyl)-8-(1-(2-hydroxy-2-methylpropyl)-1H-pyrazol-4-yl)-4-(5-methyloxazol-2-yl)-1,3-dihydro-2H-benzo[b]azepin-2-one]
0.001 to 1 µM: [1]; [2] | [1]; [3] | [1]; [4] | RPE-Neo or RPE-MYC cells

COc1ccc(CN2C(=O)CC(c3ncc(C)o3)=Cc3ccc(-c4cnn(CC(C)(C)O)c4)cc32)cc1F [Compound 102, 1-(3-fluoro-4-methoxybenzyl)-8-(1-(2-hydroxy-2-methylpropyl)-1H-pyrazol-4-yl)-4-(5-methyloxazol-2-yl)-1,3-dihydro-2H-benzo[b]azepin-2-one]
0.001 to 1 µM: [1]; [2] | [1]; [3] | [1]; [4] | RPE-Neo or RPE-MYC cells
